Experimental data reported in patent publication US20040141939A1, “Cosmetic or dermatological use of peptides for promoting adhesion between skin cells” (priority 2001, published 2004).
Peptide text beside a SMILES is read from it.

How the values were obtained:
[1] = Stability of the peptide by HPLC at various temperatures; type: physicochemical; conditions: 10^-4 M; after 8 days at 25° C.
Experimental: The Peptide Lys-Leu-Asp-Ala-Pro-Thr was analyzed with a concentration of 10^-4 M by HPLC on a column of the C18 type, and with a linear gradient water/TFA 0.1%-acetonitril/TFA 0.1%.

[2] = system: fibroblasts and keratinocytes in culture; test: Peptide applied to fibroblasts and keratinocytes in culture, HPLC analysis of the culture medium; type: in vitro ADME, human; conditions: in a few hours
Experimental: A test is carried out by applying the peptide to the fibroblasts and to the keratinocytes in culture.
This assumption is then consolidated by the tests of effectiveness exposed in the following examples.

[3] = Stability of the peptide in culture medium conditioned by human fibroblasts and keratinocytes (released degradation enzymes), HPLC; type: in vitro ADME; conditions: medium from human fibroblasts and keratinocytes cultivated 24 hours at 37° C.; after 24 hours with peptide
Experimental: Human fibroblasts and keratinocytes were cultivated during 24 hours at 37° C. and 5% of CO2. For this period, the cells will release many degradation enzymes in the culture medium. Thereafter, the culture medium is removed to be put in the presence of the peptide.

keratinocytes = test: Adhesion of keratinocytes to pre-treated 96 wells micro-plates (MTT, OD 560 nm against 630 nm); type: cell-based; conditions: Condition C: wells pre-treated 12 hours at 50 ppm; 3 hours contact with keratinocytes
Experimental: The study is carried out in 96 wells micro-plates on keratinocytes cultured in an incubator at 37° C. and 5% of CO2.
The wells of these plates are pre-treated, for 12 hours, in different ways; four conditions have been realized:
Condition A: negative control, not containing peptide;
Condition B: incubated with various peptides, made up from 3 to 25 amino acids, with a concentration of 35 ppm;
Condition C: incubated with fibronectin with a concentration of 50 ppm;
Condition D: incubated with the peptide of sequence Lys-Leu-Asp-Ala-Pro-Thr to a concentration of 5 ppm.
After 3 hours of contact with the keratinocytes, the wells are completely filled with medium, hermetically closed, turned over and agitated on a three-dimensional agitator during 20 minutes. Then the plates are emptied and the remaining medium is aspired. Then, 100 μl of MTT with 1 mg/ml are added by wells and are left for 3 hours at 37° C. and 5% CO2. The solution is finally withdrawn, then 100 μl of DMSO is added. A reading of the OD is made at 560 nm against 630 nm.
The OD is proportional to the quantity of viable cells, i.e. which adhered to the micro-plates.

peptide degradation (HPLC) [1]	peptide concentration in culture medium [2]	degradation of peptide in conditioned culture medium [3]	Compound	O.D. (adhered viable cells) (keratinocytes)
no peptide degradation	decreases quickly	almost no degradation	CC(C)C[C@H](NC(=O)[C@@H](N)CCCCN)C(=O)N[C@@H](CC(=O)O)C(=O)N[C@@H](C)C(=O)N1CCC[C@H]1C(=O)N[C@H](C(=O)O)[C@@H](C)O [Lys-Leu-Asp-Ala-Pro-Thr] (H-KLDAPT-OH; N-terminus and C-terminus assumed)	
			fibronectin	0.770
